Measurements from article PMC12320299 (Chemical Science, 2025).

System: SW480 cancer cells
Test: Proteome profiling of compound-treated SW480 cancer cells (24 h, approx. IC50, CYT and NE fractions)
Assay type: cell-based, human
Experimental: To gain insight into potential modes of action and derive structure–activity relationships on a molecular level, proteomic profiling experiments were carried out based on label-free quantification (LFQ) by nano-liquid chromatography tandem mass spectrometry (nLC-MS/MS). […] Six replicates were used per condition. The perturbations were evaluated at subcellular resolution by fractionating cells into cytoplasmic (CYT) and nuclear (NE) protein fractions. Those have been separately proteolytically digested and analysed (Fig. 3A). The perturbations with the 3-Et-NQ and 3-Morph-NQ complexes were performed against their respective solvent-treated controls (CON), yielding a total of 72 samples. […] Statistical significance of individual protein regulations was calculated by multiple testing-corrected P-values based on 5% false discovery rate (FDR = 0.05 and S0 = 0.1).
The position of each group represents the summed fold-changes of the individual proteins in the group according to the subcellular space, i.e., CYT and NE fractions, while the size represents the number of proteins in each group. […]
Proteome profiling of compound-treated SW480 cancer cells […]
cells per well and left to adhere in complete cell culture medium. After 24 h, the medium was exchanged with fresh complete medium (DMSO mock control) or fresh medium containing […]
solution in DMSO, respectively) and incubated for another 24 h. Each condition was carried out in hexuplicates. The cells were processed according to a nucleocytoplasmic fractionation protocol as previously described.3 All steps were performed on ice. The medium was removed, and the cells were washed twice with 1×PBS (phosphate buffered saline, 3 mL). Then, PBS was thoroughly removed. Isotonic lysis buffer (10 mM HEPES, 10 mM NaCl, 3.5 mM MgCl2, 1 mM EGTA, 0.25 M Sucrose, 0.5% Triton X-100) containing protease inhibitors (1% PMSF, Sigma, and 1% protease and phosphatase inhibitor cocktail, Roche) was added to the flasks, the cells were scraped off and transferred into labelled 15 mL Falcon tubes. The cellular membrane was ruptured using shear stress by pressing the cell suspension through a syringe 9–12 times. Membrane rupture with intact nuclei was monitored under a microscope. After centrifugation (960 g, 5 min), the supernatant containing the cytoplasmic (CYT) proteins was transferred into new tubes containing ice-cold ethanol (1 : 5, HPLC grade) and precipitated […]
overnight at –20 °C. The pellet containing the nuclei was incubated with a hypertonic solution (10 mM Tris-HCl, 1 mM EDTA and 0.5 M NaCl) and subsequently diluted 1:10 with NP-40 buffer (10 mm Tris-HCl, 1 mm EDTA and 0.5% Triton X-100) containing protease inhibitors (1% PMSF, Sigma, and 1% protease and phosphatase inhibitor cocktail, Roche). After centrifugation (960 g, 5 min), the soluble nuclear (NE) proteins were also transferred into new tubes containing ice-cold ethanol (1 : 5, HPLC grade) and precipitated overnight at –20 °C.
The precipitated proteins were finally pelleted by centrifugation (5000 g, 30 min, 4 °C), the solution was decanted and the pellet dried under vacuum.

[1] = cytoplasmic fraction, FDR = 0.05, S0 = 0.1
[2] = nuclear fraction, FDR = 0.05, S0 = 0.1

CCC1=C2[O][Os][O]C2(n2cccn2)c2ccccc2C1=O.Cc1ccc(C(C)C)cc1 (stereo not shown) [Compound 2a]
N° significantly regulated proteins, Total (CYT and NE): 968
GO BP Cellular response to heat, summed fold-changes (CYT fraction): 12.51
GO BP Cellular response to oxidative stress, summed fold-changes (CYT fraction): 2.82
GO BP DNA duplex unwinding, summed fold-changes (CYT fraction): -6.24
GO BP DNA replication, summed fold-changes (CYT fraction): -1.08
GO BP Double-strand break repair, summed fold-changes (CYT fraction): -1.23
GO BP Macroautophagy, summed fold-changes (CYT fraction): 10.51
GO BP Negative regulation of apoptotic process, summed fold-changes (CYT fraction): 3.78
GO BP Negative regulation of translation, summed fold-changes (CYT fraction): -16.92
GO BP Proteasome-mediated ubiquitin-dependent protein catabolic process, summed fold-changes (CYT fraction): 2.56
GO BP Protein K48-linked ubiquitination, summed fold-changes (CYT fraction): -5.49
GO BP Protein folding, summed fold-changes (CYT fraction): 12.25
GO BP Protein transport, summed fold-changes (CYT fraction): -1.68
GO BP Regulation of mRNA stability, summed fold-changes (CYT fraction): -7.54
GO BP Response to oxidative stress, summed fold-changes (CYT fraction): 3.27
GO BP Ribosomal small subunit biogenesis, summed fold-changes (CYT fraction): -13.81
GO BP Stress granule assembly, summed fold-changes (CYT fraction): -9.95
GO BP Translation, summed fold-changes (CYT fraction): -61.19
GO BP mRNA processing, summed fold-changes (CYT fraction): -0.15
GO BP rRNA processing, summed fold-changes (CYT fraction): -20.40
GO CC Azurophil granule lumen, summed fold-changes (CYT fraction): 3.77
GO CC Cell surface, summed fold-changes (CYT fraction): 0.48
GO CC Centrosome, summed fold-changes (CYT fraction): -15.78
GO CC Chromosome, telomeric region, summed fold-changes (CYT fraction): -11.84
GO CC Cytoplasmic stress granule, summed fold-changes (CYT fraction): -16.41
GO CC Cytosol, summed fold-changes (CYT fraction): -84.80
GO CC Endoplasmic reticulum, summed fold-changes (CYT fraction): -28.57
GO CC Extracellular exosome, summed fold-changes (CYT fraction): -26.34
GO CC Ficolin-1-rich granule lumen, summed fold-changes (CYT fraction): 8.74
GO CC Focal adhesion, summed fold-changes (CYT fraction): -17.07
GO CC Intracellular membrane-bounded organelle, summed fold-changes (CYT fraction): -3.80
GO CC Membrane, summed fold-changes (CYT fraction): -160.70
GO CC Mitochondrion, summed fold-changes (CYT fraction): -60.30
GO CC Nucleoplasm, summed fold-changes (CYT fraction): -4.45
GO CC Nucleus, summed fold-changes (CYT fraction): -0.98
GO CC Perinuclear region of cytoplasm, summed fold-changes (CYT fraction): -5.25
GO CC Proteasome complex, summed fold-changes (CYT fraction): 3.84
GO CC Protein-containing complex, summed fold-changes (CYT fraction): -12.02
GO CC Ribonucleoprotein complex, summed fold-changes (CYT fraction): -24.78
GO CC Spliceosomal complex, summed fold-changes (CYT fraction): -1.04
KEGG pathway Apoptosis, summed fold-changes (CYT fraction): 5.03
KEGG pathway Cellular senescence, summed fold-changes (CYT fraction): -0.24
KEGG pathway Ferroptosis, summed fold-changes (CYT fraction): 5.49
KEGG pathway Proteasome, summed fold-changes (CYT fraction): 4.95
KEGG pathway Protein processing in endoplasmic reticulum, summed fold-changes (CYT fraction): 25.89
KEGG pathway RNA degradation, summed fold-changes (CYT fraction): -8.81
KEGG pathway Ribosome, summed fold-changes (CYT fraction): -52.73
GO BP Cellular response to heat, summed fold-changes (NE fraction): 8.73
GO BP Cellular response to oxidative stress, summed fold-changes (NE fraction): -0.12
GO BP DNA duplex unwinding, summed fold-changes (NE fraction): -0.60
GO BP DNA replication, summed fold-changes (NE fraction): -7.21
GO BP Double-strand break repair, summed fold-changes (NE fraction): -0.87
GO BP Macroautophagy, summed fold-changes (NE fraction): 4.83
GO BP Negative regulation of apoptotic process, summed fold-changes (NE fraction): 2.62
GO BP Negative regulation of translation, summed fold-changes (NE fraction): 1.88
GO BP Proteasome-mediated ubiquitin-dependent protein catabolic process, summed fold-changes (NE fraction): 45.28
GO BP Protein K48-linked ubiquitination, summed fold-changes (NE fraction): -1.15
GO BP Protein folding, summed fold-changes (NE fraction): 2.10
GO BP Protein transport, summed fold-changes (NE fraction): 1.57
GO BP Regulation of mRNA stability, summed fold-changes (NE fraction): -0.24
GO BP Response to oxidative stress, summed fold-changes (NE fraction): -0.72
GO BP Ribosomal small subunit biogenesis, summed fold-changes (NE fraction): -1.30
GO BP Stress granule assembly, summed fold-changes (NE fraction): 3.01
GO BP Translation, summed fold-changes (NE fraction): -4.88
GO BP mRNA processing, summed fold-changes (NE fraction): 1.71
GO BP rRNA processing, summed fold-changes (NE fraction): -2.04
GO CC Azurophil granule lumen, summed fold-changes (NE fraction): -1.14
GO CC Cell surface, summed fold-changes (NE fraction): 0.76
GO CC Centrosome, summed fold-changes (NE fraction): 0.70
GO CC Chromosome, telomeric region, summed fold-changes (NE fraction): -12.89
GO CC Cytoplasmic stress granule, summed fold-changes (NE fraction): 4.82
GO CC Cytosol, summed fold-changes (NE fraction): 8.58
GO CC Endoplasmic reticulum, summed fold-changes (NE fraction): 8.32
GO CC Extracellular exosome, summed fold-changes (NE fraction): 5.34
GO CC Ficolin-1-rich granule lumen, summed fold-changes (NE fraction): 23.99
GO CC Focal adhesion, summed fold-changes (NE fraction): 9.01
GO CC Intracellular membrane-bounded organelle, summed fold-changes (NE fraction): 8.65
GO CC Membrane, summed fold-changes (NE fraction): -2.15
GO CC Mitochondrion, summed fold-changes (NE fraction): -7.86
GO CC Nucleoplasm, summed fold-changes (NE fraction): 29.04
GO CC Nucleus, summed fold-changes (NE fraction): 29.16
GO CC Perinuclear region of cytoplasm, summed fold-changes (NE fraction): 8.90
GO CC Proteasome complex, summed fold-changes (NE fraction): 37.70
GO CC Protein-containing complex, summed fold-changes (NE fraction): -3.65
GO CC Ribonucleoprotein complex, summed fold-changes (NE fraction): 3.30
GO CC Spliceosomal complex, summed fold-changes (NE fraction): -3.40
KEGG pathway Apoptosis, summed fold-changes (NE fraction): -0.73
KEGG pathway Cellular senescence, summed fold-changes (NE fraction): -3.09
KEGG pathway Ferroptosis, summed fold-changes (NE fraction): 1.80
KEGG pathway Proteasome, summed fold-changes (NE fraction): 35.64
KEGG pathway Protein processing in endoplasmic reticulum, summed fold-changes (NE fraction): 19.56
KEGG pathway RNA degradation, summed fold-changes (NE fraction): -5.97
KEGG pathway Ribosome, summed fold-changes (NE fraction): -4.75
N° proteins down-regulated, CYT [1]: 429
N° proteins upregulated, CYT [1]: 202
N° proteins down-regulated, NE [2]: 170
N° proteins upregulated, NE [2]: 167
